From patent US11529318B2, “Devices and methods for local delivery of tacrolimus” (UNIVERSITY OF PITTSBURGH—OF THE COMMONWEALTH SYSTEM OF …, priority 2017, dated 2022)

Experiments:
[1] = reference range; cited from earlier work
[2] = Tacrolimus concentration in blood, optic nerve ischemia model (Example 1); assay type: in vivo, Sprague-Dawley rats; details: Sprague-Dawley, rat, whole blood, ip, systemic administration (i.p. 2.2 mg/kg/day)
Procedure: Optic nerve ischemia and PEUU-Tac matrix application. Animals were anesthetized by intraperitoneal injection of 45:10 mg/kg ketamine/xylazine cocktail. Once anaesthetized, the optic nerve was exposed by making a small incision and then creating a nearly bloodless plane through the conjunctiva by blunt dissection with #5 forceps. The surrounding muscle and connective tissue around the optic nerve were then gently separated until the optic nerve was exposed. Using a Yasagril aneurysm clip, the right optic nerve was clamped ˜2 mm behind the globe for 10 seconds (Sarikcioglu, Demir et al. 2007). After removing the clip, ophthalmic artery integrity was confirmed by visualization. For some animals, the optic nerve sheath was fenestrated at the injury site by making an 1-2 mm incision. For animals receiving PEUU-Tac, a 1×5 mm section cut from a 10 mg PEUU-Tac matrix was sutured around the injury site and then secured by suturing to the outer sheath. After each optic nerve procedure, the conjunctiva was sutured and antibiotic ointment (Gentamicin, Bausch & Lomb, Tampa, Fla.) was applied to the eye. […]
Quantification of tacrolimus in blood by HPLC-tandem mass spectrometry. […] Monitored parent to product mass transitions for tacrolimus and ascomycin were 821.63→768.33 and 809→756 m/z, respectively.

[3] = tested on: GAP-43 expression; assay: GAP-43 immunohistochemistry of optic nerve after optic nerve crush; assay type: in vivo, Sprague-Dawley rats; details: 14 days after optic nerve crush, systemic tacrolimus treatment
[4] = tested on: retinal ganglion cells (RGCs); assay: RGC neurite growth and branching analysis; assay type: cell-based, rat
Procedure: Retinal ganglion cell isolation. RGCs were isolated from female and male postnatal day three (P3) Sprague-Dawley rat pups, purified by immunopanning, and cultured in NB-SATO media as previously described (Barres, Silverstein et al. 1988). The RGCs were seeded (5×10^3/cm^2) on cell culture plates coated with poly-D-lysine (70 kDa, 10 μg/mL; Sigma-Aldrich Corp., St. Louis, Mo., USA) and laminin (2 μg/mL, Sigma-Aldrich Corp.), and maintained at 37° C. in 10% CO2 for 3 days.
RGC neurite growth analysis. Neurite growth was analyzed as previously described (Steketee, Oboudiyat et al. 2014). Briefly, RGCs were fixed after 3 DIV with 4% paraformaldehyde (Alfa Aesar; 30525-89-4) in PBS, washed with PBS (2×), and permeabilized with 0.2% triton X-100 in PBS for 15 minutes. After blocking for 1 hour (1% BSA, Fisher Scientific), the RGCs were incubated in anti-β III tubulin (1:300, TUJ-1, Millipore) at 4° C. overnight, washed in PBS (3×), incubated with a FITC-rabbit anti-chicken IgY H+L (1:150, #31501, Thermo Scientific) for 3 hours, washed with PBS (3×), counterstained with the nuclear marker DAPI (1:3000, Invitrogen) for 20 minutes at room temperature, and washed in PBS (2×, 5 min. each). The RGCs were observed as above using epifluorescent microscopy and analyzed using the ImageJ plugin, NeuronJ (National Institutes of Health, Bethesda, Md., USA). Neurites were defined as any projection longer than twice the cell body, and branches were quantified as the number of secondary neurites extending from a primary neurite that originated at the cell body. At least 30 neurons were analyzed blindly as previously described for three independent experimental repeats, totaling at least 90 neurons per condition.

In the case of `C=CC[C@@H]1/C=C(\C)C[C@H](C)C[C@H](OC)[C@H]2O[C@@](O)(C(=O)C(=O)N3CCCC[C@H]3C(=O)O[C@H](/C(C)=C/[C@@H]3CC[C@@H](O)[C@H](OC)C3)[C@H](C)[C@@H](O)CC1=O)[C@H](C)C[C@@H]2OC` [tacrolimus], the “typical therapeutic trough levels (blood)” value [1] is listed as 10 to 20 ng/g, the concentration at 24 h ([2]; 24 hour) is listed as 7.05 ± 1.09 ng/mL and the concentration at 14 days ([2]; 14 days) is listed as 27.7 ± 3.53 ng/mL. The “GAP-43 expression in optic nerve” value [3] was “no significant GAP-43 expression”, the “share of the increase in total neurite growth manifested in axon growth” value [4] was 90% and the “neurite growth compared to all other conditions, including media control” value ([4]; 50 μM and 100 μM tacrolimus) was “significantly decreased”. The “longest neurite (axon) growth” value ([4]; 3 DIV) was “increased”, the neurite branching ([4]; 3 DIV) was “without a change” and the “concentration at which total neurite growth was optimal” value ([4]; 3 DIV, axons and dendrites) was 5 µM. For the same molecule, the axonal outgrowth ([4]; assays with RGCs and microglia) was “did not show an increase” and the “total and longest neurite growth” value ([4]; assays with RGCs only) was “significantly increased”.
